Patent CN106344577A, “Fistulains A在抗幽门螺杆菌药物中的应用” (Quanjiao Xianqi Pharmaceutical Technology Co Ltd, priority 2016, dated 2017)
In brackets after ≈: the same amount, converted by molar mass.

Test system: Helicobacter pylori (幽门螺杆菌)
Test: Agar dilution method, MIC against H. pylori
Format: cell-based
Details: same value for each of 6 strains: 5 random clinical strains (Hp001, Hp003, Hp004, Hp018, Hp036) and standard strain ATCC43504, complete growth inhibition, 37℃, 72 h, microaerobic, read-out: minimum inhibitory concentration (MIC)

SMILES: CC1(C)S[C@@H]2[C@H](NC(=O)[C@H](N)c3ccccc3)C(=O)N2[C@H]1C(=O)O [氨苄西林]
- MIC: 3.3 µg/mL (≈ 9.44 µM)
